Test system: healthy male alcohol drinkers
Experiment: Phase 1 single-ascending-dose study of compound (2) coadministered with ethanol: safety
Format: in vivo, human
Method: This was a single-center, randomized, double-blind, placebo-controlled, single-ascending-dose cohort study to evaluate the safety and tolerability of the coadministration of up to 6 dose levels of compound (2) (25 mg, 50 mg, 100 mg, 200 mg, 400 mg and 600 mg) and EtOH in healthy male alcohol drinkers.
Within 27 days of the medical screening visit, subjects were enrolled and attended an inpatient Qualification Phase in which they received up to 5 standard drinks (14 grams of EtOH each; oral solution of vodka containing 40% [v/v] EtOH, mixed with a non-carbonated beverage, one drink every 30 minutes) to evaluate their tolerance to repeat administration to ensure they could safely tolerate the planned EtOH treatment. A minimum washout interval of 44 hours was performed between initiation of the last EtOH administration in the Qualification Phase and study drug administration in the Treatment Phase.
Following qualification, eligible subjects were enrolled and randomized to receive compound (2) or placebo in a 3:1 fashion in each of 6 cohorts (8 subjects per cohort). As a safety precaution, no more than 4 subjects were administered study drug on any given day. Planned compound (2) dose levels included doses of 25 mg, 50 mg, 100 mg, 200 mg, 400 mg, and 600 mg. Study drug administration occurred approximately 1 hour following ingestion of a standardized (moderate-fat) meal. Approximately 2 hours after receiving the study drug, subjects began a session of repeat EtOH administration, during which they could receive up to 5 doses of EtOH (14 grams each, approximately 1 standard drink) every 30 minutes, or until a stopping criterion applied. Safety assessments, pharmacodynamic assessments and pharmacokinetic blood sample collections were obtained up to 48 hours post-dose. Subjects were discharged after 48-hour post-dose procedures were completed and the investigator deemed it safe to do so. Subjects returned for the safety follow-up visit approximately 7 (±2) days following discharge from the Treatment Phase or after early discontinuation from the study.
The primary endpoints included frequency and severity of adverse events (AEs), ethanol reaction (ER) scores and flushing, laboratory values, vital signs, and electrocardiograms (ECGs).
Subjects' ER scores and flushing were summarized descriptively by timepoint, category and treatment. In addition, flushing, ER heat sensation and ER palpitation were compared between each of the active doses and placebo using a mixed-effect model for repeated measures (MMRM) analysis with treatment, visit, and treatment by visit as fixed effects and baseline as a covariate. The actual value was used as the dependent variable and visit included pre-EtOH, 30 minutes, 60 minutes, 90 minutes, 120 minutes, 150 minutes and 3 hours relative to the first EtOH administration in Treatment Phase. The variance-covariance matrix was assumed to be unstructured. […] Results were presented as least square means (LSMEANS), treatment differences in LSMEANS, 95% confidence intervals (CI) and p-values.
Vital signs measurements (respiratory rate, systolic and diastolic blood pressure, and heart rate) were summarized by treatment and visit. Heart rate and diastolic blood pressure were also compared between each of the active doses and placebo using an MMRM analysis with treatment, visit, and treatment by visit as fixed effects and baseline as a covariate.
Twelve-lead ECG results were summarized by timepoint and treatment, and frequencies (numbers and percentages) were calculated for the overall evaluation. Concomitant medications, clinical laboratory evaluations (raw data and change from baseline, as applicable) and physical examination findings were listed.

[1] = 25 mg, 105 min after first EtOH
[2] = 25 mg, 135 min after first EtOH
[3] = 50 mg, 105 min after first EtOH
[4] = 50 mg, 135 min after first EtOH
[5] = 100 mg, 15 min after first EtOH
[6] = 100 mg, 45 min after first EtOH
[7] = 100 mg, 75 min after first EtOH
[8] = 100 mg, 105 min after first EtOH
[9] = 100 mg, 135 min after first EtOH
[10] = 200 mg, 15 min after first EtOH
[11] = 200 mg, 45 min after first EtOH
[12] = 200 mg, 75 min after first EtOH
[13] = 200 mg, 105 min after first EtOH

O=C(NCc1ccc(-c2ccn(COP(=O)(O)O)c(=O)c2)cc1)c1c(Cl)cccc1Cl [Compound (2), phosphoric acid mono-(4-{4-[(2,6-dichloro-benzoylamino)-methyl]-phenyl}-2-oxo-2H-pyridin-1-ylmethyl) ester]
flushing (25 mg): not observed
subjects reporting a TEAE (25 mg): 66.7%
Diastolic Blood Pressure, Mean (25 mg, 15 min after first EtOH): 76.0 mmHg
Systolic Blood Pressure, Mean (25 mg, 15 min after first EtOH): 120.3 mmHg
Diastolic Blood Pressure, Mean (25 mg, 45 min after first EtOH): 75.5 mmHg
Heart Rate, Mean (25 mg, 45 min after first EtOH): 65.3 beats/min
Systolic Blood Pressure, Mean (25 mg, 45 min after first EtOH): 120.5 mmHg
QTcF Interval, Aggregate, Mean (25 mg, 1 hour after initiation of repeat EtOH administration session): 406.7 ms
Diastolic Blood Pressure, Mean (25 mg, 75 min after first EtOH): 75.8 mmHg
Heart Rate, Mean (25 mg, 75 min after first EtOH): 63.5 beats/min
Systolic Blood Pressure, Mean (25 mg, 75 min after first EtOH): 120.7 mmHg
Diastolic Blood Pressure, Mean [1]: 74.0 mmHg
Heart Rate, Mean [1]: 66.5 beats/min
Systolic Blood Pressure, Mean [1]: 118.2 mmHg
Diastolic Blood Pressure, Mean [2]: 75.0 mmHg
Heart Rate, Mean [2]: 64.7 beats/min
Systolic Blood Pressure, Mean [2]: 119.0 mmHg
Diastolic Blood Pressure, Mean (25 mg, Pre-EtOH): 73.5 mmHg
Heart Rate, Mean (25 mg, Pre-EtOH): 59.5 beats/min
Systolic Blood Pressure, Mean (25 mg, Pre-EtOH): 117.2 mmHg
QTcF Interval, Aggregate, Mean (25 mg, prior to initiation of repeat EtOH administration session): 403.7 ms
subjects reporting a TEAE (50 mg): 83.3%
Diastolic Blood Pressure, Mean (50 mg, 15 min after first EtOH): 73.3 mmHg
Systolic Blood Pressure, Mean (50 mg, 15 min after first EtOH): 116.7 mmHg
Diastolic Blood Pressure, Mean (50 mg, 45 min after first EtOH): 75.2 mmHg
Heart Rate, Mean (50 mg, 45 min after first EtOH): 72.7 beats/min
Systolic Blood Pressure, Mean (50 mg, 45 min after first EtOH): 119.5 mmHg
QTcF Interval, Aggregate, Mean (50 mg, 1 hour after initiation of repeat EtOH administration session): 402.5 ms
Diastolic Blood Pressure, Mean (50 mg, 75 min after first EtOH): 73.8 mmHg
Heart Rate, Mean (50 mg, 75 min after first EtOH): 80.5 beats/min
Systolic Blood Pressure, Mean (50 mg, 75 min after first EtOH): 117.5 mmHg
Diastolic Blood Pressure, Mean [3]: 71.8 mmHg
Heart Rate, Mean [3]: 81.8 beats/min
Systolic Blood Pressure, Mean [3]: 117.5 mmHg
Diastolic Blood Pressure, Mean [4]: 78.7 mmHg
Heart Rate, Mean [4]: 76.8 beats/min
Systolic Blood Pressure, Mean [4]: 123.7 mmHg
Diastolic Blood Pressure, Mean (50 mg, Pre-EtOH): 74.5 mmHg
Heart Rate, Mean (50 mg, Pre-EtOH): 56.7 beats/min
Systolic Blood Pressure, Mean (50 mg, Pre-EtOH): 115.7 mmHg
subjects with TEAE of tachyarrhythmia (50 mg, after EtOH): one
QTcF Interval, Aggregate, Mean (50 mg, prior to initiation of repeat EtOH administration session): 400.7 ms
subjects reporting a TEAE (100 mg): 100%
Diastolic Blood Pressure, Mean [5]: 72.0 mmHg
Systolic Blood Pressure, Mean [5]: 119.2 mmHg
Diastolic Blood Pressure, Mean [6]: 70.2 mmHg
Heart Rate, Mean [6]: 70.5 beats/min
Systolic Blood Pressure, Mean [6]: 120.0 mmHg
QTcF Interval, Aggregate, Mean (100 mg, 1 hour after initiation of repeat EtOH administration session): 405.3 ms
Diastolic Blood Pressure, Mean [7]: 70.7 mmHg
Heart Rate, Mean [7]: 81.8 beats/min
Systolic Blood Pressure, Mean [7]: 120.2 mmHg
Diastolic Blood Pressure, Mean [8]: 69.5 mmHg
Heart Rate, Mean [8]: 83.8 beats/min
Systolic Blood Pressure, Mean [8]: 125.3 mmHg
Diastolic Blood Pressure, Mean [9]: 68.2 mmHg
Heart Rate, Mean [9]: 81.3 beats/min
Systolic Blood Pressure, Mean [9]: 114.8 mmHg
Diastolic Blood Pressure, Mean (100 mg, Pre-EtOH): 71.5 mmHg
Heart Rate, Mean (100 mg, Pre-EtOH): 57.0 beats/min
Systolic Blood Pressure, Mean (100 mg, Pre-EtOH): 115.7 mmHg
creatine kinase value of one subject (100 mg, follow-up, abnormal, not clinically significant): 1350 U/L
severe TEAE (100 mg, one event): 0.6%
QTcF Interval, Aggregate, Mean (100 mg, prior to initiation of repeat EtOH administration session): 401.3 ms
creatine kinase value of one subject, repeat (100 mg, repeat 3 days later): 583 U/L
subjects reporting a TEAE (200 mg): 100%
Diastolic Blood Pressure, Mean [10]: 76.5 mmHg
Systolic Blood Pressure, Mean [10]: 121.7 mmHg
Diastolic Blood Pressure, Mean [11]: 72.5 mmHg
Heart Rate, Mean [11]: 84.5 beats/min
Systolic Blood Pressure, Mean [11]: 124.5 mmHg
QTcF Interval, Aggregate, Mean (200 mg, 1 hour after initiation of repeat EtOH administration session): 403.2 ms
Diastolic Blood Pressure, Mean [12]: 69.8 mmHg
Heart Rate, Mean [12]: 97.0 beats/min
Systolic Blood Pressure, Mean [12]: 125.7 mmHg
Diastolic Blood Pressure, Mean [13]: 68.0 mmHg
Heart Rate, Mean [13]: 101.3 beats/min
Systolic Blood Pressure, Mean [13]: 124.0 mmHg
